Data as given in US12030864B2, “Small molecule anticancer agents, combinations and uses thereof” (priority 2018, dated 2024).
Where two headings read alike, the source gives them in different places.

Assays:
MDA-MB-468 cells [1] = test: MTT cell viability assay; format: cell-based
Protocol: MTT cell viability was evaluated using MTT (3-(4,5-dimethylthiazol-2-yl)-2,5-diphenyltetrazolium bromide) assays carried out based on the manufacturer's instructions (kit CGD1, Sigma-Aldrich, St. Louis, MO).
Cell viability assays were performed in MDA-MB-468 (FIG. 8) and BT474 (FIG. 9) cell lines in the presence of increasing concentrations of tcyDTDO and/or TRAIL using the MTT method. The results were analyzed using the Chou-Talalay method [T. C. Chou, P. Talalay, Generalized equations for the analysis of inhibitions of Michaelis-Menten and higher-order kinetic systems with two or more mutually exclusive and nonexclusive inhibitors, Eur J Biochem, 115 (1981) 207-216; T. C. Chou, P. Talalay, Quantitative analysis of dose-effect relationships: the combined effects of multiple drugs or enzyme inhibitors, Adv Enzyme Regul, 22 (1984) 27-55.] to calculate combination indices (Cis) where CI<1 denotes synergy, CI=1 denotes additivity, and C I>1 denotes antagonism.
(§1) Cell viability (FIG. 12), proliferation (FIG. 13), and protein synthesis (FIG. 14) assays were performed in MDA-MB-468 cell line in the presence of increasing concentrations of tcyDTDO or DMtcyDTDO.

[2] = test system: DR5 transcription in HEK293 cells; test: DR5 transcriptional reporter construct; format: cell-based; settings: 5 μM; FIG. 10
Excerpt: FIG. 10. depicts increases in DR5 transcription by tcyDTDO in HEK293 cells as measured using a transcriptional reporter construct.
(§2) Thus, without being bound by any particular theory, it is speculated that compounds of Formula (I)-(VI) regulate DR5 steady-state protein levels in addition to the observed transcriptional induction.

[3] = test system: protein thiolates of MDA-MB-468 cell lysates; test: Protein thiolate reactivity assay (BGPD labeling of cell lysates); format: biochemical; settings: MDA-MB-468 cell lysates treated with compound in molar excess, then BGPD; FIG. 2
Protocol: To assess tcyDTDO reactivity with protein thiolates, MDA-MB-468 cell lysates were treated with various compounds in sufficient molar excess to block all protein thiolates. A non-selective thiol-reactive biotinylated analog (BGPD, FIG. 2) was then added to quantify free thiolates remaining after the pre-labeling.

[4] = test system: DR5Long in MDA-MB-468 cell line; format: cell-based
Excerpt: A MDA-MB-468 cell line was engineered to stably express the long form of DR5 (DR5Long) in a tetracycline-inducible manner in order to separate DR5A effects on DR5 protein stability from transcriptional activation.

MDA-MB-468 cells [5] = test: Protein synthesis assay; format: cell-based
Protocol: FIG. 11. depicts the inhibition of global protein synthesis upon treatment of MDA-MB-468 cells with tcyDTDO.
as §1, §2

DR5 in MDA-MB-468 cells = test: DR5 oligomerization immunoblot; format: cell-based; settings: FIGS. 6 and 7
Excerpt: Oligomerization of DR5 was also investigated in MDA-MB-468 cells as shown in FIG. 6 and FIG. 7, which is a magnification of the DR5Long/DR5Short portion of the immunoblot in FIG. 6.

BT474 cells = test: Immunoblot assays; format: cell-based; settings: BT474 cancer line
MDA-MB-468 cells [6] = test: Immunoblot assays; format: cell-based; settings: for PARP cleavage: MDA-MB-468, single agent, FIG. 15; for responsiveness of the cell line to treatment: MDA-MB-468 TNBC line
[7] = test system: EGFR, DR4, and DR5 in MDA-MB-468 breast cancer cells; test: Immunoblot of cell extracts prepared under non-reducing conditions; format: cell-based; settings: 24 h, FIG. 16
Protocol: MDA-MB-468 breast cancer cells were treated for 24 h with the indicated concentrations of DMtcyDTDO and cells were analyzed by immunoblot. Cell extracts were prepared under non-reducing conditions in the presence of 100 mM N-ethylmaleimide to preserve disulfide bonding patterns (FIG. 16). […] The oligomerized forms of DR4 and DR5 represent the activated form of these receptors.

MDA-MB-468 cell line = test: Cell proliferation assay; format: cell-based; settings: 24 treatment, FIG. 13
Protocol: as §1

O=S1(=O)CC2CCCCC2CS1 (stereo not shown) [tcyDTDO]
potency in reducing cancer cell viability (MDA-MB-468 cells [1]; MTT, FIG. 1, compared with the other compounds profiled): most potent compound identified so far | DR5 transcription [2]: increased DR5 transcription | BGPD labeling of free thiolates remaining after pre-labeling [3]: did not reduce BGPD labeling | doxycycline-mediated increase in DR5Long ([4]; reducing conditions, FIG. 5): enhanced | inhibition at 5 µM (MDA-MB-468 cells [5]; Homo sapiens, 5 μM, FIG. 11, read-out: inhibition of global protein synthesis): > 95% | DR5 dimerization and oligomerization (DR5 in MDA-MB-468 cells): increase in DR5 dimerization and oligomerization | responsiveness of the cell line to treatment (BT474 cells): highly responsive | PARP cleavage (MDA-MB-468 cells [6]): induce PARP cleavage | responsiveness of the cell line to treatment (MDA-MB-468 cells [6]): highly responsive | DR5 expression (MDA-MB-468 cells [6]; immunoblot): increased DR5 expression

O[C@H](CS)[C@H](O)CS (racemic) [Dithiothreitol (DTT), Dithiothreitol]
doxycycline-mediated increase in DR5Long ([4]; reducing conditions, FIG. 5): did not mimic the effects of tcyDTDO

C/C=C(/C)C(=O)O[C@H]1C(C)=C2[C@H]([C@@H]1OC(=O)CCCCCCC)[C@@](C)(OC(C)=O)C[C@H](OC(=O)CCC)[C@@]1(O)[C@H]2OC(=O)[C@@]1(C)O [Thapsigargin]
doxycycline-mediated increase in DR5Long ([4]; reducing conditions, FIG. 5): did not mimic the effects of tcyDTDO

CCN1C(=O)C=CC1=O [N-ethylmaleimide (NEM), N-ethylmaleimide, reference compound]
BGPD labeling of free thiolates remaining after pre-labeling [3]: prevented BGPD labeling

CC(C)[C@H](NC(=O)c1ccc2ccccc2n1)C(=O)N[C@@H](CC(=O)O)C(=O)COc1c(F)cccc1F [Q-VD-OPH, reference compound]
effect on tcyDTDO/TRAIL downregulation of EGFR, Akt, phospho-Akt, PDK1 (MDA-MB-468 cells [6]; MDA-MB-468 cells): partially reverses | effect on tcyDTDO-mediated upregulation of DR5 or the ER stress response (MDA-MB-468 cells [6]; caspase inhibitor added): does not alter | effect on PARP cleavage induced by tcyDTDO/TRAIL (MDA-MB-468 cells [6]; caspase inhibitor added, FIGS. 3, 4): blocked

CO[C@H]1C[C@@H]2CS(=O)(=O)SC[C@H]2C[C@@H]1OC (racemic) [DMtcyDTDO, (4aS,6S,7S,8aS)- and (4aR,6R,7R,8aR)-6,7-Dimethoxyoctahydrobenzo[d][1,2]dithiine 2,2-dioxide]
effect on cell viability compared to equal doses of tcyDTDO (MDA-MB-468 cells [1]; MDA-MB-468, 24 treatment, FIG. 12): significantly greater effect | oligomerization of EGFR, DR4, and DR5 ([7]; 100 mM N-ethylmaleimide): induces oligomerization of EGFR, DR4, and DR5 | DR5 level [7]: upregulates DR5 | effect on protein synthesis compared to equal doses of tcyDTDO (MDA-MB-468 cells [5]; 24 treatment, FIG. 14): significantly greater effect | PARP cleavage (MDA-MB-468 cells [6]): induce PARP cleavage | responsiveness of the cell line to treatment (MDA-MB-468 cells [6]): highly responsive | effect on proliferation compared to equal doses of tcyDTDO (MDA-MB-468 cell line): significantly greater effect

Tunicamycin
doxycycline-mediated increase in DR5Long ([4]; reducing conditions, FIG. 5): did not mimic the effects of tcyDTDO

Cyclosporine A [Cyclosporine A (CsA)]
doxycycline-mediated increase in DR5Long [4]: did not mimic the effects of tcyDTDO
